For the test, the system named is L1210 leukemia ip in BDF1 mice, survival T/C. The test can be described thus: NCI In Vivo Anticancer Drug Screen. Data for tumor model L1210 Leukemia (intraperitoneal) in B6D2F1 (BDF1) mice. The settings on record: endpoint: mean survival time, higher = longer survival. The procedure, abridged: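 Transplantable tumor model; survival measured in treated vs vehicle control mice. Value = treated/control.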

The mark [1] stands for this setting: dose: 100.0 mg/kg/injection, schedule: Q04DX003 (ip), vehicle: Klucel (hydroxypropylcellulose) (HPC).
Setting [2] is: dose: 200.0 mg/kg/injection, schedule: Q04DX003 (ip), vehicle: Klucel (hydroxypropylcellulose) (HPC).
Setting [3] is: dose: 400.0 mg/kg/injection, schedule: Q04DX003 (ip), vehicle: Klucel (hydroxypropylcellulose) (HPC).
Setting [4] is: dose: 200.0 mg/kg/injection, schedule: Q01DX001 (ip), vehicle: saline.
The mark [5] stands for this setting: dose: 100.0 mg/kg/injection, schedule: Q01DX001 (ip), vehicle: Klucel (hydroxypropylcellulose) (HPC).
The mark [6] stands for this setting: dose: 200.0 mg/kg/injection, schedule: Q01DX001 (ip), vehicle: Klucel (hydroxypropylcellulose) (HPC).
Setting [7] is: dose: 400.0 mg/kg/injection, schedule: Q01DX001 (ip), vehicle: Klucel (hydroxypropylcellulose) (HPC).

We go through 15 compounds from PubChem BioAssay AID248 (DTP/NCI, 2004).

Molecules are shown by their SMILES. Values joined by “and” are separate entries in the source; they are usually repeats but may differ in a detail not shown here. Equal values may be shown once. Inconclusive results and toxic doses are left out. Square brackets hold non-standard residues; d marks the D form. Peptide text beside a SMILES is read from it. * marks the point of attachment. ξ: configuration not given here. Octanoyl = CCCCCCCC(=O)*; ξP = O=C(O)C1CCCN1

On to `C=C(C)C(=O)O[C@H]1CC2=C[C@@H](C[C@@]3(C)O[C@@H]3[C@H]3OC(=O)C(=C)[C@@H]31)OC2=O`, for which the T/C was 112 % of control (dose: 2.5 mg/kg/injection, schedule: Q01DX009 (ip), vehicle: saline + alcohol); 110 % of control (dose: 5.0 mg/kg/injection, schedule: Q01DX009 (ip), vehicle: saline + alcohol); 106 % of control (dose: 5.0 mg/kg/injection, schedule: Q01DX Z (ip), vehicle: saline); 105 % of control (dose: 10.0 mg/kg/injection, schedule: Q01DX009 (ip), vehicle: carboxymethylcellulose (CMC)); 107 % of control (dose: 10.0 mg/kg/injection, schedule: Q01DX009 (ip), vehicle: saline + alcohol); 97 % of control (dose: 10.0 mg/kg/injection, schedule: Q01DX Z (ip), vehicle: carboxymethylcellulose (CMC)). Also, the T/C is 101 % of control (dose: 10.0 mg/kg/injection, schedule: Q01DX Z (ip), vehicle: saline); 93 % of control (dose: 20.0 mg/kg/injection, schedule: Q01DX009 (ip), vehicle: carboxymethylcellulose (CMC)); 105 % of control (dose: 20.0 mg/kg/injection, schedule: Q01DX009 (ip), vehicle: saline + alcohol); 100 % of control (dose: 20.0 mg/kg/injection, schedule: Q01DX Z (ip), vehicle: carboxymethylcellulose (CMC)); 100 % of control (dose: 40.0 mg/kg/injection, schedule: Q01DX009 (ip), vehicle: carboxymethylcellulose (CMC)); 90 % of control (dose: 40.0 mg/kg/injection, schedule: Q01DX009 (ip), vehicle: saline + alcohol). Besides, the T/C (dose: 40.0 mg/kg/injection, schedule: Q01DX Z (ip), vehicle: carboxymethylcellulose (CMC)) was 103 % of control.

For `COc1cc2ccc3c(c2cc1OC)C(=O)CNC3C` (centres undefined), the T/C is 100 % of control (dose: 12.5 mg/kg/injection, schedule: Q04DX003 (ip), vehicle: saline); 114 % of control (dose: 50.0 mg/kg/injection, schedule: Q04DX003 (ip), vehicle: Klucel (hydroxypropylcellulose) (HPC)); 98 % of control under setting [1]; 106 % of control under setting [2]; 101 % of control under setting [3].

Turning to `CCCCNC(C)(C)C(SS)c1cccs1` (centres undefined), the T/C is 96 % of control (dose: 100.0 mg/kg/injection, schedule: Q04DX003 (ip), vehicle: saline sonified); 92 % of control (dose: 200.0 mg/kg/injection, schedule: Q04DX003 (ip), vehicle: saline sonified); 96 % of control (dose: 400.0 mg/kg/injection, schedule: Q04DX003 (ip), vehicle: saline sonified).

`CCCCCCCCCCCCCCCCCC[N+]1(C)CCOCC1`: the T/C (dose: 6.25 mg/kg/injection, schedule: Q01DX009 (ip), vehicle: Klucel (hydroxypropylcellulose) (HPC)) is 94 % of control; the T/C (dose: 12.5 mg/kg/injection, schedule: Q01DX009 (ip), vehicle: Klucel (hydroxypropylcellulose) (HPC)) is 100 % of control; the T/C (dose: 25.0 mg/kg/injection, schedule: Q01DX009 (ip), vehicle: Klucel (hydroxypropylcellulose) (HPC)) is 97 % of control.

Regarding `COc1ccc(OC)c2[nH]c(=O)c(CCC(=O)O)nc12`, the T/C (dose: 100.0 mg/kg/injection, schedule: Q04DX003 (ip), vehicle: other) is 96 % of control and the T/C (dose: 200.0 mg/kg/injection, schedule: Q04DX003 (ip), vehicle: other) was 96 % of control.

Consider `CCCCOCCCNC1=C(Cl)C(=O)c2ccccc2C1=O`, for which the T/C (dose: 12.5 mg/kg/injection, schedule: Q01DX001 (ip), vehicle: carboxymethylcellulose (CMC)) was 92 % of control; the T/C (dose: 25.0 mg/kg/injection, schedule: Q01DX001 (ip), vehicle: carboxymethylcellulose (CMC)) was 96 % of control; the T/C (dose: 50.0 mg/kg/injection, schedule: Q01DX001 (ip), vehicle: carboxymethylcellulose (CMC)) was 105 % of control.

Turning to `S=c1nc[nH]c2c1ncn2C1CCCCO1` (centres undefined), the T/C by setting is: (dose: 16.0 mg/kg/injection, schedule: Q01DX Z (ip), vehicle: carboxymethylcellulose (CMC)) 120 % of control; (dose: 21.0 mg/kg/injection, schedule: Q01DX009 (ip), vehicle: saline) 103 % of control; (dose: 36.0 mg/kg/injection, schedule: Q01DX009 (ip), vehicle: saline) 120 % of control; (dose: 88.0 mg/kg/injection, schedule: Q01DX001 (ip), vehicle: saline) 112 % of control; (dose: 100.0 mg/kg/injection, schedule: Q01DX001 (ip), vehicle: carboxymethylcellulose (CMC)) 124 % of control; (dose: 100.0 mg/kg/injection, schedule: Q01DX009 (ip), vehicle: saline) 118 % of control. In addition, the T/C was 107 % of control (dose: 120.0 mg/kg/injection, schedule: Q01DX009 (ip), vehicle: saline); 94 % of control (dose: 125.0 mg/kg/injection, schedule: Q01DX Z (ip), vehicle: carboxymethylcellulose (CMC)); 122 % of control (dose: 133.0 mg/kg/injection, schedule: Q01DX001 (ip), vehicle: saline); 155 % of control (dose: 177.0 mg/kg/injection, schedule: Q01DX001 (ip), vehicle: carboxymethylcellulose (CMC)); 155 % of control under setting [4]; 159 % of control (dose: 267.0 mg/kg/injection, schedule: Q01DX001 (ip), vehicle: carboxymethylcellulose (CMC)). In addition, the T/C reads like this: (dose: 600.0 mg/kg/injection, schedule: Q01DX001 (ip), vehicle: carboxymethylcellulose (CMC)) 150 % of control and 156 % of control; (dose: 900.0 mg/kg/injection, schedule: Q01DX001 (ip), vehicle: carboxymethylcellulose (CMC)) 104 % of control; (dose: 1350.0 mg/kg/injection, schedule: Q01DX001 (ip), vehicle: carboxymethylcellulose (CMC)) 96 % of control.

As to `Nc1ccc(C(=O)O)cc1S(=O)(=O)O`, under setting [5], the T/C is 102 % of control.

Regarding `CCOC(=O)C(Cc1ccc(OCc2ccccc2)c(OCc2ccccc2)c1)(NC=O)C(=O)OCC`, the T/C reads like this: (dose: 100.0 mg/kg/injection, schedule: Q01DX001 (ip), vehicle: other) 94 % of control; (dose: 200.0 mg/kg/injection, schedule: Q01DX001 (ip), vehicle: other) 92 % of control; (dose: 400.0 mg/kg/injection, schedule: Q01DX001 (ip), vehicle: other) 87 % of control.

Turning to `CNC(=O)C1C(c2ccc(OC)cc2)C1c1ccc(OC)cc1` (centres undefined), the T/C by setting is: (dose: 12.5 mg/kg/injection, schedule: Q04DX002 (ip), vehicle: Klucel (hydroxypropylcellulose) (HPC)) 92 % of control; (dose: 25.0 mg/kg/injection, schedule: Q04DX002 (ip), vehicle: Klucel (hydroxypropylcellulose) (HPC)) 92 % of control; (dose: 50.0 mg/kg/injection, schedule: Q04DX002 (ip), vehicle: Klucel (hydroxypropylcellulose) (HPC)) 95 % of control.

In the case of `CCCCCCCC(=O)N1CCCC1C(=O)NCC(=O)NCC(=O)O` (stereo not drawn) (Octanoyl-[ξP]-Gly-Gly-OH), the T/C was 115 % of control under setting [5], 95 % of control under setting [6] and 95 % of control under setting [7].

In the case of `Cn1c(-c2ccccc2)nc2c(N)ncnc21`, the T/C (dose: 25.0 mg/kg/injection, schedule: Q01DX001 (ip), vehicle: saline with Tween-80) was 95 % of control; the T/C (dose: 50.0 mg/kg/injection, schedule: Q01DX001 (ip), vehicle: saline with Tween-80) is 90 % of control; the T/C (dose: 100.0 mg/kg/injection, schedule: Q01DX001 (ip), vehicle: saline with Tween-80) is 90 % of control.

`CCc1cccc(CC)c1NC(=O)Nc1ccccc1F`: the T/C is, setting by setting: (dose: 100.0 mg/kg/injection, schedule: Q01DX009 (ip), vehicle: other) 91 % of control; (dose: 200.0 mg/kg/injection, schedule: Q01DX009 (ip), vehicle: other) 102 % of control; (dose: 400.0 mg/kg/injection, schedule: Q01DX009 (ip), vehicle: other) 105 % of control.

Turning to `OCC1OC(CO)(c2ccccc2O)C(O)C1O` (centres undefined) (tested in a mixture with another compound), the T/C (dose: 100.0 mg/kg/injection, schedule: Q01DX001 (ip), vehicle: saline) was 95 % of control; the T/C under setting [4] is 97 % of control; the T/C (dose: 400.0 mg/kg/injection, schedule: Q01DX001 (ip), vehicle: saline) is 92 % of control.

For the compound `O=C(NC/C(Br)=C/Br)Nc1c(Cl)cccc1Cl`, the T/C under setting [5] is 94 % of control; the T/C under setting [1] was 96 % of control; the T/C under setting [6] is 91 % of control; the T/C under setting [2] was 89 % of control; the T/C under setting [7] was 91 % of control; the T/C under setting [3] is 93 % of control.
